According to BigSolDB 2.1:

O=C(O)c1ccccc1O
solubility (mole fraction)
Settings	278.15 K	283.15 K	288.15 K	293.15 K	298.15 K	303.15 K	308.15 K	313.15 K	318.15 K
in ethanol	0.108	0.117	0.126	0.136	0.145	0.157	0.17	0.182	0.197
in n-butanol	0.106	0.116	0.126	0.137	0.148	0.16	0.174	0.186	0.201
in n-heptanol	0.117	0.128	0.138	0.148	0.16	0.171	0.185	0.197	0.21
in n-hexanol	0.116	0.127	0.137	0.146	0.158	0.169	0.182	0.195	0.209
in n-pentanol	0.113	0.123	0.132	0.144	0.155	0.166	0.18	0.192	0.206
in n-propanol	0.102	0.111	0.12	0.131	0.143	0.154	0.168	0.181	0.196
